Test results: ChEMBL document CHEMBL4138267, “Synthesis and SAR of 1,2,3,4-Tetrahydroisoquinoline-Based CXCR4 Antagonists” (ACS Med Chem Lett, 2018)

How the values were obtained:
[1] = Permeability of the compound at pH 7.4 by PAMPA; assay type: ADME
[2] = Permeability of the compound at pH 5.5 by PAMPA; assay type: ADME

Q: What does the source list for `NCCCCN(Cc1ncccc1F)C[C@H]1Cc2ccccc2CN1`?
A: permeability [1]: Impermeable; permeability [2]: Impermeable

Q: With `Cc1cnc(CN(CCCCN)C[C@H]2Cc3ccccc3CN2)c(C)c1` as the compound, how does the permeability [1] read?
A: Impermeable

Q: What about the permeability [2] of the same compound?
A: Impermeable

Q: For `NCCCCN(C[C@H]1Cc2ccccc2CN1)[C@H]1CCOc2cccnc21`, which permeability [1] is on record?
A: Impermeable

Q: And the permeability [2]?
A: Impermeable

Q: With `NCCCCN(Cc1ncccc1C1CC1)C[C@H]1Cc2ccccc2CN1` as the compound, how does the permeability [1] read?
A: Impermeable

Q: What about the permeability [2] of the same compound?
A: Impermeable

Q: With `NCCCCN(Cc1ncccc1C(F)(F)F)C[C@H]1Cc2ccccc2CN1` as the compound, how does the permeability [1] read?
A: Impermeable

Q: And the permeability [2]?
A: Impermeable

Q: What does the source list for `NCCCCN(Cc1ccccn1)C[C@H]1Cc2ccccc2CN1`?
A: permeability [1]: Impermeable; permeability [2]: Impermeable

Q: Which permeability [1] does the source give for `NCCCCN(Cc1cc2ccccc2cn1)C[C@H]1Cc2ccccc2CN1` here?
A: Impermeable

Q: And the permeability [2]?
A: Impermeable

Q: Which results are given for `NCCCCN(Cc1ccc2ccccc2n1)C[C@H]1Cc2ccccc2CN1`?
A: permeability [1]: Impermeable; permeability [2]: Impermeable

Q: Which permeability [1] does the source give for `NCCCCN(Cc1ccc(Cl)cn1)C[C@H]1Cc2ccccc2CN1` here?
A: Impermeable

Q: What about the permeability [2] of the same compound?
A: Impermeable

Q: What does the source list for `Cc1cccnc1[C@H](C)N(CCCCN)C[C@H]1Cc2ccccc2CN1`?
A: permeability [1]: Impermeable; permeability [2]: Impermeable

Q: What does the source list for `Cc1ccc([C@H](C)N(CCCCN)C[C@H]2Cc3ccccc3CN2)nc1`?
A: permeability [1]: Impermeable; permeability [2]: Impermeable

Q: What does the source list for `C=Cc1cccnc1CN(CCCCN)C[C@H]1Cc2ccccc2CN1`?
A: permeability [1]: Impermeable; permeability [2]: Impermeable

Q: With `COc1ccc(CN(CCCCN)C[C@H]2Cc3ccccc3CN2)nc1` as the compound, how does the permeability [1] read?
A: Impermeable

Q: What about the permeability [2] of the same compound?
A: Impermeable

Q: With `Cc1cccnc1CN(CCCCN)C[C@H]1Cc2ccccc2CN1` as the compound, how does the permeability [1] read?
A: Impermeable

Q: And the permeability [2]?
A: Impermeable

Q: What does the source list for `NCCCCN(Cc1nccc2ccccc12)C[C@H]1Cc2ccccc2CN1`?
A: permeability [1]: Impermeable; permeability [2]: Impermeable

Q: Which results are given for `Cc1cccc(CN(CCCCN)C[C@H]2Cc3ccccc3CN2)n1`?
A: permeability [1]: Impermeable; permeability [2]: Impermeable

Q: Which results are given for `Cc1cnc(CN(CCCCN)C[C@H]2Cc3ccccc3CN2)c(F)c1`?
A: permeability [1]: Impermeable; permeability [2]: Impermeable

Q: Which permeability [1] does the source give for `NCCCCN(Cc1nccs1)C[C@H]1Cc2ccccc2CN1` here?
A: Impermeable

Q: What about the permeability [2] of the same compound?
A: Impermeable

Q: Which permeability [1] does the source give for `NCCCCN(Cc1ncccc1Cl)C[C@H]1Cc2ccccc2CN1` here?
A: Impermeable

Q: What about the permeability [2] of the same compound?
A: Impermeable

Q: For `C[C@@H](c1ccccn1)N(CCCCN)C[C@H]1Cc2ccccc2CN1`, which permeability [1] is on record?
A: Impermeable

Q: What about the permeability [2] of the same compound?
A: Impermeable

Q: What does the source list for `NCCCCN(Cc1ccc(C(F)(F)F)cn1)C[C@H]1Cc2ccccc2CN1`?
A: permeability [1]: Impermeable; permeability [2]: Impermeable

Q: Which permeability [1] does the source give for `Cc1ccnc(CN(CCCCN)C[C@H]2Cc3ccccc3CN2)c1` here?
A: Impermeable

Q: And the permeability [2]?
A: Impermeable

Q: Which results are given for `Cc1cnc2c(c1)CCC[C@@H]2N(CCCCN)C[C@H]1Cc2ccccc2CN1`?
A: permeability [1]: Impermeable; permeability [2]: Impermeable

Q: With `NCCCCN(Cc1cscn1)C[C@H]1Cc2ccccc2CN1` as the compound, how does the permeability [1] read?
A: Impermeable

Q: What about the permeability [2] of the same compound?
A: Impermeable

Q: With `Cc1nc(CN(CCCCN)C[C@H]2Cc3ccccc3CN2)cs1` as the compound, how does the permeability [1] read?
A: Impermeable

Q: And the permeability [2]?
A: Impermeable

Q: Which permeability [1] does the source give for `NCCCCN(Cc1cc(Cl)ccn1)C[C@H]1Cc2ccccc2CN1` here?
A: Impermeable

Q: What about the permeability [2] of the same compound?
A: Impermeable

Q: With `NCCCCN(Cc1ccc(F)cn1)C[C@H]1Cc2ccccc2CN1` as the compound, how does the permeability [1] read?
A: Impermeable

Q: And the permeability [2]?
A: Impermeable

Q: Which permeability [1] does the source give for `NCCCCN(C[C@H]1Cc2ccccc2CN1)[C@H]1CCCc2cccnc21` here?
A: Impermeable

Q: What about the permeability [2] of the same compound?
A: Impermeable

Q: Which results are given for `Cc1ccc(CN(CCCCN)C[C@H]2Cc3ccccc3CN2)nc1`?
A: permeability [1]: Impermeable; permeability [2]: Impermeable

Q: With `COc1cccnc1CN(CCCCN)C[C@H]1Cc2ccccc2CN1` as the compound, how does the permeability [1] read?
A: Impermeable

Q: What about the permeability [2] of the same compound?
A: Impermeable

Q: For `Cc1cc(F)cnc1CN(CCCCN)C[C@H]1Cc2ccccc2CN1`, which permeability [1] is on record?
A: Impermeable

Q: What about the permeability [2] of the same compound?
A: Impermeable
